Experiments:
galium = experiment: Test A postemergence; type: in vivo, Galium aparine
Summary of the method: (§1)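 Visual injury ratings on a 0–100 scale (100 = complete control) versus untreated controls, taken 10 days after treatment in greenhouse. Preemergence: directed soil spray onto seeded loam/sand. Postemergence: foliar application at one- to two-leaf stage, plants 2–10 cm. Formulation: non-phytotoxic solvent plus surfactant.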

pigweed, palmer [1] = experiment: Test A postemergence; type: in vivo, Amaranthus palmeri
Summary of the method: as §1

kochia [2] = experiment: Test A preemergence; type: in vivo, Bassia scoparia
Summary of the method: as §1

foxtail, giant [3] = experiment: Test A preemergence; type: in vivo, Setaria faberi
Summary of the method: as §1

ryegrass, Italian [4] = experiment: Test A preemergence; type: in vivo, Lolium multiflorum
Summary of the method: as §1

blackgrass [5] = experiment: Test A preemergence; type: in vivo, Alopecurus myosuroides
Summary of the method: as §1

barnyardgrass [6] = experiment: Test A postemergence; type: in vivo, Echinochloa crusgalli; settings: 1000 g ai/ha, Postemergence; 0 to 100 scale
Excerpt: (§2) Seeds of plant species selected from barnyardgrass (Echinochloa crusgalli), blackgrass (Alopecurus myosuroides), corn (Zea mays), foxtail, giant (giant foxtail, Setaria faberi), goosegrass (Eleusine indica), kochia (Bassia scoparia), oat, wild (wild oat, Avena fatua), pigweed, palmer (palmer amaranth, palmer pigweed, Amaranthus palmeri), Pigweed, Redroot (redroot pigweed, Amaranthus retroflexus), ragweed (common ragweed, Ambrosia artemisiifolia), ryegrass, Italian (italian ryegrass, Lolium multiflorum), soybean (Glycine max), and wheat (Triticum aestivum) were planted into a blend of loam soil and sand and treated preemergence with a directed soil spray using test chemicals formulated in a non-phytotoxic solvent mixture which included a surfactant. At the same time, plants selected from these crops and weed species and also galium (catchweed bedstraw, Galium aparine) and horseweed (Erigeron canadensis) were planted in pots containing the same blend of loam soil and sand and treated with postemergence applications of test chemicals formulated in the same manner. Plants ranged in height from 2 to 10 cm and were in the one- to two-leaf stage for the postemergence treatment. Treated plants and untreated controls were maintained in a greenhouse for 10 days, after which time all treated plants were compared to untreated controls and visually evaluated for injury. Plant response ratings, summarized in Table A, are based on a 0 to 100 scale where 0 is no effect and 100 is complete control. A dash (-) response means no test result.

ragweed [7] = experiment: Test A preemergence; type: in vivo, Ambrosia artemisiifolia
Summary of the method: as §1

ryegrass, Italian [8] = experiment: Test A postemergence; type: in vivo, Lolium multiflorum
Summary of the method: as §1

barnyardgrass [9] = experiment: Test A preemergence; type: in vivo, Echinochloa crusgalli; settings: 1000 g ai/ha, 0 to 100 scale (0 no effect, 100 complete control), 10 days
Excerpt: as §2

blackgrass [10] = experiment: Test A postemergence; type: in vivo, Alopecurus myosuroides
Summary of the method: as §1

horseweed = experiment: Test A postemergence; type: in vivo, Erigeron canadensis
Summary of the method: as §1

foxtail, giant [11] = experiment: Test A postemergence; type: in vivo, Setaria faberi
Summary of the method: as §1

ragweed [12] = experiment: Test A postemergence; type: in vivo, Ambrosia artemisiifolia
Summary of the method: as §1

pigweed, palmer [13] = experiment: Test A preemergence; type: in vivo, Amaranthus palmeri
Summary of the method: as §1

kochia [14] = experiment: Test A postemergence; type: in vivo, Bassia scoparia
Summary of the method: as §1

oat, wild [15] = experiment: Test A preemergence; type: in vivo, Avena fatua
Summary of the method: as §1

goosegrass [16] = experiment: Test A preemergence; type: in vivo, Eleusine indica
Summary of the method: as §1

soybean [17] = experiment: Test A preemergence; type: in vivo, Glycine max
Summary of the method: as §1

soybean [18] = experiment: Test A postemergence; type: in vivo, Glycine max; settings: 500 g ai/ha, postemergence, 10 days, visual injury, 0 to 100 scale (0 no effect, 100 complete control)
Summary of the method: as §1

barnyardgrass [19] = experiment: Test B flooded paddy test; type: in vivo, Echinochloa crus-galli; settings: 250 g ai/ha, Flood, 13 days, 0 to 100 scale (0 no effect, 100 complete control)
Summary of the method: (§3)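 2-leaf stage; pots flooded 3 cm over soil; compound dosed into paddy water; depth kept constant. Greenhouse, 13 d. Visual rating vs controls, 0 (no effect)–100 (complete control). Dash = no result.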

wheat [20] = experiment: Test A postemergence; type: in vivo, Triticum aestivum; settings: 500 g ai/ha, postemergence, 10 days, visual injury, 0 to 100 scale (0 no effect, 100 complete control)
Summary of the method: as §1

goosegrass [21] = experiment: Test A postemergence; type: in vivo, Eleusine indica; settings: postemergence, 10 days, visual injury, 0 to 100 scale (0 no effect, 100 complete control)
Summary of the method: as §1

wheat [22] = experiment: Test A preemergence; type: in vivo, Triticum aestivum
Summary of the method: as §1

corn [23] = experiment: Test A preemergence; type: in vivo, Zea mays
Summary of the method: as §1

corn [24] = experiment: Test A postemergence; type: in vivo, Zea mays; settings: postemergence, 10 days, visual injury, 0 to 100 scale (0 no effect, 100 complete control)
Summary of the method: as §1

rice = experiment: Test B flooded paddy test; type: in vivo, Oryza sativa; settings: 250 g ai/ha, Flood, 13 days, 0 to 100 scale (0 no effect, 100 complete control)
Summary of the method: as §3

sedge, umbrella = experiment: Test B flooded paddy test; type: in vivo, Cyperus difformis; settings: 250 g ai/ha, Flood, 13 days, 0 to 100 scale (0 no effect, 100 complete control)
Summary of the method: as §3

oat, wild [25] = experiment: Test A postemergence; type: in vivo, Avena fatua; settings: 500 g ai/ha, postemergence, 10 days, visual injury, 0 to 100 scale (0 no effect, 100 complete control)
Summary of the method: as §1

ducksalad = experiment: Test B flooded paddy test; type: in vivo, Heteranthera limosa; settings: 250 g ai/ha, Flood, 13 days, 0 to 100 scale (0 no effect, 100 complete control)
Summary of the method: as §3

[26] = 1000 g ai/ha, Postemergence, 0 to 100 scale
[27] = 1000 g ai/ha, 0 to 100 scale (0 no effect, 100 complete control), 10 days
[28] = 125 g ai/ha, visual injury after 10 days, 0 to 100 scale, 0 is no effect, 100 is complete control
[29] = 500 g ai/ha, 0 to 100 scale (0 no effect, 100 complete control), 10 days
[30] = 125 g ai/ha, postemergence, 10 days, visual injury, 0 to 100 scale (0 no effect, 100 complete control)
[31] = 500 g ai/ha, postemergence, 10 days, visual injury, 0 to 100 scale (0 no effect, 100 complete control)

Compound: Cc1cccc2c1O[C@@H](C)CN2C(=O)c1cccc(-n2cc(C(F)(F)F)cn2)c1 [Compound 130]
- Plant response rating, Galium (galium; [26]): 0
- Plant response rating, Pigweed, Palmer (pigweed, palmer [1]; [26]): 0
- Plant response rating, Kochia (kochia [2]; [27]): 0
- Plant response rating, Foxtail, Giant (foxtail, giant [3]; [27]): 0
- Plant response rating, Ryegrass, Italian (ryegrass, Italian [4]; [27]): 0
- Plant response rating, Blackgrass (blackgrass [5]; [27]): 10
- Plant response rating, Barnyardgrass (barnyardgrass [6]): 0
- Plant response rating, Ragweed (ragweed [7]; [27]): 0
- Plant response rating, Ryegrass, Italian (ryegrass, Italian [8]; [26]): 0
- Plant response rating, Barnyardgrass (barnyardgrass [9]): 10
- Plant response rating, Blackgrass (blackgrass [10]; [26]): 0
- Plant response rating, Horseweed (horseweed; [26]): 0
- Plant response rating, Foxtail, Giant (foxtail, giant [11]; [26]): 0
- Plant response rating, Ragweed (ragweed [12]; [26]): 0
- Plant response rating, Pigweed, Palmer (pigweed, palmer [13]; [27]): 0
- Plant response rating, Kochia (kochia [14]; [26]): 0

Compound: Cc1cccc2c1O[C@@H](C)CN2C(=O)c1cccc(-n2cc(C#N)cn2)c1 [Compound 134]
- Plant response rating, Galium (galium; [26]): 20
- Plant response rating, Pigweed, Palmer (pigweed, palmer [1]; [26]): 30
- Plant response rating, Kochia (kochia [2]; [27]): 20
- Plant response rating, Foxtail, Giant (foxtail, giant [3]; [27]): 70
- Plant response rating, Ryegrass, Italian (ryegrass, Italian [4]; [27]): 80
- Plant response rating, Blackgrass (blackgrass [5]; [27]): 40
- Plant response rating, Barnyardgrass (barnyardgrass [6]): 10
- Plant response rating, Ragweed (ragweed [7]; [27]): 50
- Plant response rating, Ryegrass, Italian (ryegrass, Italian [8]; [26]): 20
- Plant response rating, Barnyardgrass (barnyardgrass [9]): 30
- Plant response rating, Blackgrass (blackgrass [10]; [26]): 0
- Plant response rating, Horseweed (horseweed; [26]): 0
- Plant response rating, Foxtail, Giant (foxtail, giant [11]; [26]): 50
- Plant response rating, Ragweed (ragweed [12]; [26]): 0
- Plant response rating, Pigweed, Palmer (pigweed, palmer [13]; [27]): 90
- Plant response rating, Kochia (kochia [14]; [26]): 50

Compound: CCc1ncn(-c2cccc(C(=O)N3C[C@H](C)Oc4c(C)cccc43)c2)n1 [Compound 71]
- Plant response rating, Oat, Wild (oat, wild [15]; [28]): 90
- Plant response rating, Oat, Wild (oat, wild [15]; [29]): 90
- Plant response rating, Galium (galium; [30]): 100
- Plant response rating, Galium (galium; [31]): 100
- Plant response rating, Goosegrass (goosegrass [16]; [28]): 100
- Plant response rating, Goosegrass (goosegrass [16]; [29]): 100
- Plant response rating, Soybean (soybean [17]; [28]): 50
- Plant response rating, Soybean (soybean [17]; [29]): 90
- Plant response rating, Pigweed, Palmer (pigweed, palmer [1]; [31]): 70
- Plant response rating, Soybean (soybean [18]): 100
- Plant response rating, Kochia (kochia [2]; [28]): 80
- Plant response rating, Kochia (kochia [2]; [29]): 100
- Plant response rating, Barnyardgrass (barnyardgrass [19]): 0
- Plant response rating, Foxtail, Giant (foxtail, giant [3]; [28]): 100
- Plant response rating, Foxtail, Giant (foxtail, giant [3]; [29]): 100
- Plant response rating, Wheat (wheat [20]): 80
- Plant response rating, Goosegrass (goosegrass [21]; 125 g ai/ha): 10
- Plant response rating, Goosegrass (goosegrass [21]; 500 g ai/ha): 50
- Plant response rating, Ryegrass, Italian (ryegrass, Italian [4]; [28]): 100
- Plant response rating, Ryegrass, Italian (ryegrass, Italian [4]; [29]): 100
- Plant response rating, Blackgrass (blackgrass [5]; [28]): 80
- Plant response rating, Blackgrass (blackgrass [5]; [29]): 90
- Plant response rating, Ragweed (ragweed [7]; [28]): 0
- Plant response rating, Ragweed (ragweed [7]; [29]): 90
- Plant response rating, Ryegrass, Italian (ryegrass, Italian [8]; [31]): 100
- Plant response rating, Blackgrass (blackgrass [10]; [30]): 80
- Plant response rating, Blackgrass (blackgrass [10]; 500 g ai/ha, Postemergence, 0 to 100 scale): 90
- Plant response rating, Wheat (wheat [22]; [28]): 30
- Plant response rating, Wheat (wheat [22]; [29]): 90
- Plant response rating, Horseweed (horseweed; [30]): 30
- Plant response rating, Horseweed (horseweed; [31]): 80
- Plant response rating, Corn (corn [23]; [28]): 40
- Plant response rating, Corn (corn [23]; [29]): 60
- Plant response rating, Corn (corn [24]; 125 g ai/ha): 60
- Plant response rating, Corn (corn [24]; 500 g ai/ha): 90
- Plant response rating, Foxtail, Giant (foxtail, giant [11]; [30]): 90
- Plant response rating, Foxtail, Giant (foxtail, giant [11]; [31]): 90
- Plant response rating, Ragweed (ragweed [12]; [31]): 80
- Plant response rating, Rice (rice): 0
- Plant response rating, Pigweed, Palmer (pigweed, palmer [13]; [28]): 100
- Plant response rating, Pigweed, Palmer (pigweed, palmer [13]; [29]): 100
- Plant response rating, Kochia (kochia [14]; [30]): 60
- Plant response rating, Kochia (kochia [14]; [31]): 90
- Plant response rating, Sedge, Umbrella (sedge, umbrella): 95
- Plant response rating, Oat, Wild (oat, wild [25]): 80
- Plant response rating, Ducksalad (ducksalad): 65
